Measured values taken from patent US7258872B1, “Chromone enteric release formulation” (Thornton & Ross Limited, priority 1998, dated 2007).

Tests used:
[1] = test system: B lymphocytes; conditions: cited from earlier work
[2] = Solubility of sodium cromoglycate in water; type: physicochemical
Excerpt: Water may be used without additional binder or surfactant.

[3] = cited from earlier work

## O=C(O)c1cc(=O)c2c(OCC(O)COc3cccc4oc(C(=O)O)cc(=O)c34)cccc2o1 [sodium cromoglycate]
[1]
  effect on IgE synthesis by B lymphocytes: reduce the ability of IgE-producing cells, the B lymphocytes, to synthesise IgE antibody
[2]
  freely soluble up to: up to 5%
  soluble with difficulty up to: up to 10%
[3]; acid medium / gastric fluid
  solubility in acid: insoluble in an acid medium
[3]; model assumption
  lipid solubility: lipid insoluble
  water solubility: water soluble
